Measurements from patent publication US20070060529A1, “ADMINISTRATION OF DIPEPTIDYL PEPTIDASE INHIBITORS” (priority 2005, published 2007).

System: db/db (BKS.Cg-+Lepr^db/+Lepr^db) mice
Assay: Plasma glucose after 21 days of administration in powder chow, alone or with pioglitazone
Type: in vivo
Details: male db/db mice, 21 days in powder chow, feeding condition; average (n=7) ± standard deviation
Description: Male db/db (BKS.Cg-+Lepr^db/+Lepr^db) mice (6 weeks of age, CLEA Japan (Tokyo, Japan)) were divided into 4 groups (n=7 in each group) comprising Group A to Group D. Group A had free access to CE-2 powder chow (CLEA Japan) for 21 days. […] Group C had free access to CE-2 powder chow (CLEA Japan) containing 0.0075% (w/w) of pioglitazone hydrochloride for 21 days. The dose of pioglitazone in Group C was calculated to be 17.7±0.6 (mean±SD) mg/kg body weight/day. […] During 21 days of administration of the powder chow, there were not significant differences in the administration amount of the powder chow in the above 4 groups. After 21 days of administration of the powder chow, blood samples were taken from the orbital veins of the mice by capillary pipette under feeding condition, and plasma glucose levels were enzymatically measured by using Autoanalyzer 7080 (Hitachi, Japan).
The values in the table means average (n=7)±standard deviation.

Row | SMILES | Plasma Glucose [mg/dL]
1 | N#Cc1ccccc1Cn1c(N2CCC[C@@H](N)C2)ncc(F)c1=O [Compound I, 2-[[2-[(3R)-3-Amino-piperidinyl)-5-fluoro-6-oxo-6H-pyrimidinyl]methyl]-benzonitrile] | 412.4 ± 77.5
2 | CCc1ccc(CCOc2ccc(CC3SC(=O)NC3=O)cc2)nc1 (centres unmarked) [Pioglitazone, 5-{[4-(2-(5-ethyl-2-pyridyl)ethoxy)phenyl]-methyl}-thiazolidine-2,4-dione] | 394.4 ± 47.9
